The values below are quoted from earlier work in patent EP1464334A1 (priority 2003, dated 2004).

Counter-ions that a name gives are not always drawn. Like-named read-outs stand apart in the source and are kept apart here.

For data set [1] the following is noted: rabbit, in vivo, po.
For data set [2] the following is noted: mouse, in vivo, po.

As to `CCN(CC)CCCC(C)Nc1c2ccc(Cl)cc2nc2ccc(OC)cc12` (centres unmarked) [Chinacrinhydrochlorid], the LD50-Dosis in data set [1] is on record as 433 mg/kg; in data set [2], 557 mg/kg.
